{
  "source": "paper PMC5372522",
  "about": "“Bioavailability Comparison of Nine Bioselenocompounds In Vitro and In Vivo” (International Journal of Molecular Sciences, 2017)",
  "key": {"[1]": {"system": "Caco-2 cells", "assay": "In vitro permeability assay using Caco-2 cell monolayers", "assay_type": "in vitro ADME, human", "conditions": "for permeability in the presence of Met: with 10 mM Met versus without", "protocol": "The bioselenocompounds were evaluated and compared in accordance with the standard protocol of the in vitro permeability assay using Caco-2 cells.\nFigure 3 Permeability from the apical side to the basolateral side of Caco-2 cells. The permeability of the nine bioselenocompounds was compared (a). A 500 μL aliquot of fresh medium containing 1 μg Se/mL of each bioselenocompound was poured into the insert and the medium in the lower chamber was collected after 90 min. Values and bars are means ± SD for 3 wells. Statistical analysis was performed by the Tukey test. […] The effects of Met on the permeability of SeMet and MeSeCys were evaluated (b). Hatched and solid bars represent with and without 10 mM Met, respectively. Points and bars are means ± SD for 3 wells. Statistical analysis include the one-way analysis of variance followed by the Student’s t-test. The level of significance was set at p < 0.05, and is indicated by an asterisk (*).\nConfluent Caco-2 cells at the cell density of around 20,000 cells/cm^2 were harvested by trypsinization and suspended in basal medium (Corning, Corning, NY, USA) containing MITO+ Serum Extender (Corning) at the cell density of 4 × 10^5 cells/mL. A 0.5 mL aliquot of the cell suspension was seeded on the inserts of a Falcon 24-Multiwell Insert System (Corning). The inserts were transferred onto a 24-well plate that contained 1 mL of basal medium, and incubation was carried out for 24 h. Then, the basal medium was carefully removed from the wells and the inserts, and 1.0 and 0.5 mL aliquots of the differentiation medium (Entero-STIM) containing MITO+ Serum Extender (Corning) were added to the wells and the inserts, respectively. The plate was incubated for another 3 days to induce the formation of a monolayer of differentiated Caco-2 cells. The medium was carefully removed from the inserts and the inserts were washed with transport buffer (HBSS + 10 mM HEPES, pH 7.4). Then, a 350 μL aliquot of each Se compound solution in transport buffer or this solution with 10 mM L-methionine (Wako) was added to the insert chamber. These inserts were transferred onto a plate and a 50 μL aliquot was withdrawn from the chamber of each insert for measurement of the initial concentration of the donor chamber. One milliliter of transfer buffer was added to the plate wells and the plate was incubated on an orbital shaker at 37 °C for 90 min in a CO2 incubator. The transport buffer in the lower chamber was collected to determine Se concentration 90 min after the incubation. Se concentrations were measured by an inductively coupled plasma mass spectrometer (ICP-MS, Agilent 7700cx, Agilent, Hachiouji, Japan). The Se compound solution in the chamber of each insert was removed and a 300 μL aliquot of 300 μM Lucifer Yellow (LY) solution was added to the upper chamber. Then, the concentration of LY that permeated the lower chamber was determined by a fluorescence photometer (excitation wavelength: 485 nm, emission wavelength: 538 nm). Monolayers producing 0.3%–2.0% LY flux were recognized as intact monolayers of differentiated Caco-2 cells. Monolayers with flux exceeding 2.0% were excluded from the experiment."}, "[2]": {"system": "extracellular glutathione peroxidase (GPX3)", "assay": "Bioavailability in vivo: recovery of serum GPX3 in Se-deficient rats by LC-ICP-MS", "conditions": "oral 10 μg Se/rat once a day for 2 days, serum 24 h after administration", "protocol": "(§1) Two major serum selenoproteins were detected by LC-ICP-MS (Figure 4a). The peak detected at the retention time of 11.0 min was assigned to extracellular glutathione peroxidase (GPX3), and the peak at the retention time of 13.5 min was assigned to selenoprotein P (SELENOP) according to our previous literature. The abbreviations of the selenoproteins (GPX3 and SELENOP) were adopted in accordance with the latest nomenclature. We used the recovery amounts of serum selenoproteins in Se-deficient rats as the index of Se bioavailability when a selenocompound was administered to an Se-deficient rat. […] Sera sampled from rats administered each bioselenocompound were analyzed for the recovery of Se in the form of selenoproteins by LC-ICP-MS, and their bioavailabilities, namely, the assimilation of Se into GPX3 and SELENOP, are summarized in Figure 4c,d, respectively. Coinciding with a previous study, SELENOP was more efficiently recovered than GPX3 in the Se-deficient rats 24 h after the repletion of the bioselenocompounds except for TMSe^+. There were no significant differences in the recovery of GPX3 among all the bioselenocompounds except for TMSe^+ (Figure 4c). As SELENOP was more efficiently recovered, the recovery of SELENOP by all the bioselenocompounds except TMSe^+ was more obvious than that of GPX3 (Figure 4d). […] Therefore, there were no significant differences in the bioavailability in vivo among all the bioselenocompounds except TMSe^+.\n(§2) Specific pathogen free (SPF) male Wistar rats (4 weeks of age) were purchased from Japan SLC (Shizuoka, Japan) and were housed in a humidity-controlled room maintained at 25 ± 2 °C with a 12 h light-dark cycle. The rats were fed a commercial diet (MF, Oriental Yeast Co., Ltd., Tokyo, Japan) and tap water ad libitum. After a one-week acclimation period, diet and water were changed to a Se-deficient diet (Oriental Yeast) and Milli-Q water (18.3 MΩ·cm), respectively. The rat fed the Se-deficient diet and the Milli-Q water for 3 weeks was used as an Se-deficient rat. The rats continuously fed the commercial diet and tap water served as the positive control.\n(§3) The Se-deficient rats were orally administered each Se compound in saline at a dose of 10 μg Se/rat once a day for 2 consecutive days. The saline-administered rats served as the negative control. All the rats were sacrificed 24 h after administration by exsanguination under anesthesia. Non-heparinized blood was collected and clotted blood was centrifuged at 1600× g for 10 min to obtain serum. A 20 μL aliquot of the serum was applied to an HPLC coupled with an ICP-MS to analyze the distribution of Se. […]"}, "[3]": {"system": "selenoprotein P (SELENOP)", "assay": "Bioavailability in vivo: recovery of serum SELENOP in Se-deficient rats by LC-ICP-MS", "conditions": "oral 10 μg Se/rat once a day for 2 days, serum 24 h after administration", "protocol": "as §1, §2, §3"}, "[4]": {"system": "Caco-2 and HepG2 cells", "assay": "Proliferative effect under standard culture conditions for Caco-2 and HepG2 cells", "assay_type": "cell-based, human", "conditions": "data not shown", "protocol": "(§4) A human colon carcinoma cell line (Caco-2) and a human hepatocyte carcinoma cell line (HepG2) were obtained from Riken BioResource Center (Wako, Japan). The composition of the passaging medium for Caco-2 or HepG2 was Eagle’s Minimum Essential Medium (MEM) with 20% FBS, 1% non-essential amino acid (NEAA), and 1% penicillin-streptomycin, or Dulbecco’s Modified Eagle’s Medium (DMEM) with 10% FBS and 1% penicillin-streptomycin, respectively. Caco-2 cells were seeded on a 96-well plate at 5500 cells/well and incubation was carried out for 2 days. […] Cell viability was determined by the CellTiter 96® Aqueous One Solution Cell Proliferation Assay (Promega, Madison, WI, USA) based on mitochondrial respiratory activity. HepG2 cells were seeded on a 96-well plate at 5000 cells/well and incubation was carried out for 1 day. Then, the cells were exposed to a Se compound, and cell viability was determined by using the same protocol as that mentioned above."}, "[5]": {"system": "HepG2 cells", "assay": "Cell viability / proliferation assay (CellTiter 96 Aqueous One) in HepG2 cells", "conditions": "for dose at which cytotoxicity / reduced cell viability was seen / effect on cell viability / proliferation: 48 h exposure; for dose from which toxicity was dose-dependent: 24 and 48 h exposure; for effect on cell proliferation: 24 h exposure", "protocol": "(§5) Caco-2 cells were used in the in vitro permeability assay in the next experiment, and the cytotoxicity of bioselenocompounds was assayed 6 h after exposure to evaluate the harmful effects of bioselenocompounds on the cells. The cytotoxicity and/or proliferative effects of bioselenocompounds on HepG2 cells were analyzed 24 and 48 h after exposure.\nas §4"}, "[6]": {"design": "method as in PMID 26243445", "conditions": "cited from earlier work"}, "[7]": {"design": "method as in PMID 6076213", "conditions": "selenyl group versus sulfhydryl group; cited from earlier work"}, "[8]": {"system": "Caco-2 cells", "assay": "Cell viability assay (CellTiter 96 Aqueous One) in Caco-2 cells", "conditions": "6 h exposure; for dose at or above which cell viability was significantly reduced: p < 0.05", "protocol": "as §5, §4"}, "[9]": {"conditions": "Caco-2 monolayer, 1 μg Se/mL, 90 min, mean ± SD for 3 wells"}},
  "data": [
    {"compound": "C[Se+](C)C.[I-]", "note": "[TMSe^+, Trimethylselenonium iodide]", "values": [
      {"measurement": "percentage permeation", "setting": "[1]; Caco-2", "result": "3% ± 0.42%"},
      {"measurement": "recovery of serum GPX3 (assimilation of Se)", "setting": "[2]", "result": "did not have any apparent effects"},
      {"measurement": "recovery of serum SELENOP (assimilation of Se)", "setting": "[3]", "result": "did not have any apparent effects"}
    ]},
    {"compound": "CSCC[C@H](N)C(=O)O", "note": "[Met, L-methionine]", "values": [
      {"measurement": "proliferative effects", "setting": "[4]", "result": "no proliferative effects"}
    ]},
    {"compound": "N#C[Se-].[K+]", "note": "[SeCN^−, potassium selenocyanate]", "values": [
      {"measurement": "percentage permeation", "setting": "[1]; [9]", "result": "3.8% ± 0.44%"},
      {"measurement": "dose at which cytotoxicity / reduced cell viability was seen", "setting": "[5]", "result": 80, "unit": "μg Se/mL"},
      {"measurement": "recovery of serum GPX3 (assimilation of Se)", "setting": "[2]", "result": "comparable to selenite"},
      {"measurement": "recovery of serum SELENOP (assimilation of Se)", "setting": "[3]", "result": "comparable to selenite"},
      {"measurement": "toxicity relative to selenite", "setting": "[6]", "result": "less toxic than selenite"}
    ]},
    {"compound": "N[C@@H](CS)C(=O)O", "note": "[Cys]", "values": [
      {"measurement": "pKa", "setting": "[7]", "result": 8.3}
    ]},
    {"compound": "O=[Se]([O-])[O-].[Na+].[Na+]", "note": "[selenite, Sodium selenite]", "values": [
      {"measurement": "percentage permeation", "setting": "[1]; [9]", "result": "3.4% ± 0.066%"},
      {"measurement": "dose from which toxicity was dose-dependent", "setting": "[5]", "result": "≥ 0.8", "unit": "μg Se/mL"},
      {"measurement": "dose at or above which cell viability was significantly reduced", "setting": "[8]", "result": "≥ 8.0", "unit": "μg Se/mL"},
      {"measurement": "recovery of serum GPX3 (assimilation of Se)", "setting": "[2]", "result": "recovery of both selenoproteins was observed"},
      {"measurement": "recovery of serum SELENOP (assimilation of Se)", "setting": "[3]", "result": "recovery of both selenoproteins was observed"}
    ]},
    {"compound": "N[C@@H](C[Se][Se]C[C@H](N)C(=O)O)C(=O)O", "note": "[SeCys2, L-selenocystine]", "values": [
      {"measurement": "dose from which toxicity was dose-dependent", "setting": "[5]", "result": "≥ 0.4", "unit": "μg Se/mL"},
      {"measurement": "dose at or above which cell viability was significantly reduced", "setting": "[8]", "result": "≥ 0.8", "unit": "μg Se/mL"}
    ]},
    {"compound": "Lucifer Yellow [LY, reference compound]", "values": [
      {"measurement": "percentage permeation", "setting": "[1]; Caco-2", "result": "0.81% ± 0.36%"}
    ]},
    {"compound": "C[Se]C1OC(CO)C(O)C(O)C1NC(C)=O", "note": "(stereo not drawn) [SeSug1, Se-methylseleno-N-acetylgalactosamine]", "values": [
      {"measurement": "recovery of serum GPX3 (assimilation of Se)", "setting": "[2]", "result": "equivalent effect to selenite"},
      {"measurement": "recovery of serum SELENOP (assimilation of Se)", "setting": "[3]", "result": "equivalent effect to selenite"}
    ]},
    {"compound": "S-methylcysteine [MeCys]", "values": [
      {"measurement": "proliferative effects", "setting": "[4]", "result": "no proliferative effects"}
    ]},
    {"compound": "C[Se]C[C@H](N)C(=O)O", "note": "[MeSeCys, Se-Methylseleno-L-cysteine]", "values": [
      {"measurement": "permeability in the presence of Met", "setting": "[1]; Caco-2 monolayer", "result": "reduced"},
      {"measurement": "effect on cell proliferation", "setting": "[5]", "result": "stimulated the proliferation"},
      {"measurement": "dose at which cytotoxicity / reduced cell viability was seen", "setting": "[5]", "result": "≥ 40", "unit": "μg Se/mL"},
      {"measurement": "effect on cell viability / proliferation", "setting": "[5]", "result": "still induced the cell proliferation at low doses"},
      {"measurement": "dose from which cell viability was significantly increased (proliferation)", "setting": "[8]; dose-dependent", "result": "≥ 0.8", "unit": "μg Se/mL"}
    ]},
    {"compound": "N[C@@H](C[SeH])C(=O)O", "note": "[SeCys, selenocysteine]", "values": [
      {"measurement": "pKa", "setting": "[7]", "result": 5.2}
    ]},
    {"compound": "C[Se]CC[C@H](N)C(=O)O", "note": "[SeMet, seleno-L-methionine]", "values": [
      {"measurement": "permeability in the presence of Met", "setting": "[1]; Caco-2 monolayer", "result": "reduced"},
      {"measurement": "effect on cell proliferation", "setting": "[5]", "result": "stimulated the proliferation"},
      {"measurement": "effect on cell viability / proliferation", "setting": "[5]", "result": "marginal cytotoxicity rather than a proliferative effect"}
    ]}
  ]
}
